Usually IC50 stands for the concentration that inhibits the measured activity by half. Read a low IC50 as inhibition by little substance.

In the assay the target is T1, hMMP-13CD (Homo sapiens, UniProt P45452).
T1 construct: a human MMP-13 catalytic domain (“hMMP-13CD”)
Kind of assay: Inhibition of MMP-13 catalytic domain (IC50). As to conditions: human MMP-13 catalytic domain. Format: biochemical. As for the experimental part: Thiopeptolide substrates show virtually no decomposition or hydrolysis at or below neutral pH in the absence of a matrix metalloproteinase enzyme. A typical thiopeptolide substrate commonly utilized for assays is Ac-Pro-Leu-Gly-thioester-Leu-Leu-Gly-OEt. A 100 μL assay mixture will contain 50 mM of N-2-hydroxyethylpiperazine-N′-2-ethanesulfonic acid buffer (“HEPES,” pH 7.0), 10 mM CaCl2, 100 μM thiopeptolide substrate, and 1 mM 5,5′-dithio-bis-(2-nitro-benzoic acid) (DTNB). The thiopeptolide substrate concentration may be varied, for example from 10 to 800 μM to obtain Km and Kcat values. The change in absorbance at 405 nm is monitored on a Thermo Max microplate reader (molecular Devices, Menlo Park, Calif.) at room temperature (22° C.). […]
Some representative compounds of Formula I have been evaluated for their ability to inhibit MMP-13. Inhibitor activity versus other MMPs with the compounds may be determined using, for example, MMP-1FL, which refers to full length interstitial collagenase; MMP-2FL, which refers to full length Gelatinase A; MMP-3CD, which refers to the catalytic domain of stromelysin; MMP-7FL, which refers to full length matrilysin; MMP-9FL, which refers to full length Gelatinase B; MMP-13CD, which refers to the catalytic domain of collagenase 3; and MMP-14CD, which refers to the catalytic domain of MMP-14. […]

`O=C(O)c1ccc(Cn2ccc3ccc(C#CCn4ccnn4)cc3c2=O)cc1` [4-[1-oxo-7-(3-[1,2,3]triazol-1-ylprop-1-ynyl)-1H-isoquinolin-2-ylmethyl]benzoic acid] yielded an IC50 above 50 µM.

The record behind these values is patent US6869958B2, “Fused tetrahydropyridine derivatives as matrix metalloproteinase inhibitors” (Warner-Lambert Company, priority 2002, dated 2005).
